For test [1], the target named is Sodium/potassium-transporting ATPase. Briefly: Inhibition of myocardial Na+/K+ ATPase from canine cardiac sarcolemma. Format: protein-complex assay, Canis lupus familiaris.
The species entered for the next test is Cavia porcellus. The experiment in a line: Compound was evaluated for inotropic activity in guinea pig papillary muscle. In kind it is functional. Particulars: Muscle tissue.

`CC(Nc1ncc(-c2ccc3ccccc3c2)n1C)c1ccccc1` (centres undefined): the 50% inhibitory concentration (IC50) in test [1] worked out at 2.1 µM.

Take `CC(Nc1ncc(-c2cc(C(F)(F)F)cc(C(F)(F)F)c2)n1C)c1ccccc1` (centres undefined): the half-inhibitory concentration (IC50) in test [1] amounted to 88 µM. On to `CC(Nc1ncc(-c2ccc(OC(F)(F)F)cc2)n1C)c1ccccc1` (centres undefined), for which, in test [1], it took 33 µM to reach half-maximal inhibition (IC50). As for `C[C@@H](Nc1ncc(-c2ccccc2)n1C)c1ccccc1`, 10 µM corresponded to half-maximal inhibition in test [1] (IC50). Molecule `CC(Nc1ncc(-c2ccccc2)n1C)c1ccc(Cl)cc1` (centres undefined) had an IC50 in test [1] of 1.3 µM. The same measure, in the same setting: with `COc1ccc(-c2cnc(NC(C)c3ccccc3)n2C)cc1OC` (centres undefined) the figure was 99 µM. On the same count and under the same terms, in the case of `CCC(Nc1ncc(-c2ccccc2)n1C)c1ccc(Cl)cc1` (centres undefined) it was 0.8 µM; in that of `CC(Nc1ncc(-c2ccccc2)n1C)c1ccc(F)cc1` (centres undefined), 10 µM; in that of `CC(Nc1ncc(-c2cccc(-c3ccccc3)c2)n1C)c1ccccc1` (centres undefined), 14 µM. The molecule `COc1cc2c(cc1OC)-c1cnc(NCc3ccccc3)n1CC2` displayed an EC50 in the test filed under Cavia porcellus of 1 µM. In test [1], `CC(Nc1ncc(-c2ccccc2)n1C)c1ccccc1` (centres undefined) had an IC50 of 38 µM. That is a double-digit micromolar value. `CC(Nc1ncc(-c2cc(F)cc(F)c2)n1C)c1ccccc1` (centres undefined) displayed a 50% inhibitory concentration (IC50) in test [1] of 52 µM. The IC50 values of the last two molecules are within 1.5-fold of each other.

As for `C[C@H](Nc1ncc(-c2ccccc2)n1C)c1ccccc1`, the IC50 in test [1] was 61 µM.

As to `CCC(C)C(Nc1ncc(-c2ccccc2)n1C)c1ccccc1` (centres undefined), in test [1], the midpoint of inhibition, the IC50, lay at 77 µM.

By IC50 is commonly meant the midpoint of a concentration-inhibition curve. A lower IC50 goes with inhibition by little substance. In general, EC50 refers to the midpoint of the concentration-response curve.

The record behind these values is ChEMBL document CHEMBL1133229, “Parallel synthesis and evaluation of N-(1-phenylethyl)-5-phenyl-imidazole-2-amines as Na+/K+ ATPase inhibitors” (Bioorg Med Chem Lett, 2000).
